Values of other authors, collected in patent publication US20040049352A1, “Designing modulators for glycosyltransferases” (priority 2000, published 2004).

target: T1, GlcNAc-T II (Rattus norvegicus, UniProt Q09326); details: inhibition studies
T1 sequence (Q09326 1-442): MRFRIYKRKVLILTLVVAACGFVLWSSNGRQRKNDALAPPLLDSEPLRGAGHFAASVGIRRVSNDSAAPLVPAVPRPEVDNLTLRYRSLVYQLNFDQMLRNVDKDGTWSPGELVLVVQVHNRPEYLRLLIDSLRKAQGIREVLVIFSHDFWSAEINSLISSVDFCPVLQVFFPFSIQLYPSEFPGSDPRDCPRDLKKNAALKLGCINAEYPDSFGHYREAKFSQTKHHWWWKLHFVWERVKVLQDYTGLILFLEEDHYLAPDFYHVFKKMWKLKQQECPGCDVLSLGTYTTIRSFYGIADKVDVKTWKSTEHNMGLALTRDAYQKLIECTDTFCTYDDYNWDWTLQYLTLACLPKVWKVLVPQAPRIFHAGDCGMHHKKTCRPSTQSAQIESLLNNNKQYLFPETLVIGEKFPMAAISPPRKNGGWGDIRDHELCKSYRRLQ

Row | SMILES | binding to the enzyme GlcNAc-T II
1 | CC(=O)N[C@@H]1[C@@H](O)[C@H](O)[C@@H](CO)O[C@@H]1O [GlcNAc, 2-acetamido-2-deoxy-α-D-glucopyranose] | neither GlcNAc nor GlcNAc-α-l-phosphate binds
2 | CC(=O)N[C@H]1[C@@H](OP(=O)(O)O)O[C@H](CO)[C@@H](O)[C@@H]1O [GlcNAc-α-l-phosphate] | neither GlcNAc nor GlcNAc-α-l-phosphate binds
3 | CC(=O)N[C@H]1[C@@H](OP(=O)(O)OP(=O)(O)OC[C@H]2O[C@@H](n3ccc(=O)[nH]c3=O)[C@H](O)[C@@H]2O)O[C@H](CO)[C@H](O)[C@@H]1O [UDP-GalNAc] | do bind
